Experiments:
[1] = system: Salmonella enterica (food isolate); test: Broth microdilution MIC; type: cell-based; details: read-out: Minimum Inhibitory Concentrations (MIC)
[2] = system: Pseudomonas aeruginosa ATCC 27853; test: Broth microdilution MIC; type: cell-based; details: Pseudomonas aeruginosa, ATCC27853, read-out: Minimum Inhibitory Concentrations (MIC)
[3] = system: Staphylococcus aureus ATCC 25923; test: Broth microdilution MIC; type: cell-based; details: for MIC: Staphylococcus aureus, ATCC25923, read-out: Minimum Inhibitory Concentrations (MIC)
[4] = system: Staphylococcus aureus Clinical/MRSA; test: Broth microdilution MIC; type: cell-based; details: for MIC: Staphylococcus aureus, MRSA, read-out: Minimum Inhibitory Concentrations (MIC)
[5] = system: Enterococcus faecalis ATCC 29212; test: Broth microdilution MIC; type: cell-based; details: for MIC: Enterococcus faecalis, ATCC29212, read-out: Minimum Inhibitory Concentrations (MIC), Enterococcus faecalis ATCC 29212
[6] = system: Staphylococcus aureus ATCC 33591 (methicillin-resistant); test: Broth microdilution MIC; type: cell-based; details: for MIC: Staphylococcus aureus, ATCC33591, read-out: Minimum Inhibitory Concentrations (MIC)
[7] = system: Escherichia coli ATCC 25922; test: Broth microdilution MIC; type: cell-based; details: for MIC: Escherichia coli, ATCC25922, read-out: Minimum Inhibitory Concentrations (MIC)
[8] = system: Bacillus cereus ATCC 14579; test: Broth microdilution MIC; type: cell-based; details: ATCC14579, read-out: Minimum Inhibitory Concentrations (MIC), Bacillus cereus ATCC 14579
[9] = system: Listeria monocytogenes ATCC 7644; test: Broth microdilution MIC; type: cell-based; details: Listeria monocytogenes, ATCC7644, read-out: Minimum Inhibitory Concentrations (MIC), Listeria monocytogenes ATCC 7644
[10] = system: Staphylococcus aureus ATCC 25923; test: Biofilm inhibition assay (crystal violet); type: cell-based
Description: (§1) The ability of the candidate compounds to inhibit biofilm formation was evaluated by determining the minimum biofilm inhibitory concentration (MBIC) against the biofilm-forming strains Staphylococcus aureus ATCC 25923 and Listeria monocytogenes ATCC 7644. Overnight bacterial cultures were diluted in fresh, pre-warmed Mueller–Hinton broth (MHB) and incubated at 37 °C with constant shaking at 220 rpm. Once the cultures reached the exponential growth phase (OD600 = 0.3–0.5), they were standardized to a final concentration of 4 × 10^6 CFU/mL.
(§2) Plates were incubated at 37 °C for 24 to 48 h, depending on the bacterial strain. After incubation, the planktonic cells were carefully aspirated to preserve the integrity of the biofilm layer. Wells were gently rinsed with sterile ultrapure Milli-Q water and air-dried at 60 °C for 1 h to fix the biofilms. Biofilm formation was quantified using a crystal violet (CV) staining method. Wells were stained with 100 µL of 0.1% CV solution and incubated at room temperature for 1 h. Excess dye was removed by rinsing with sterile ultrapure Milli-Q water, followed by air-drying. Bound CV was solubilized with 100 µL of 70% ethanol and incubated for 30 min. The solubilized dye was transferred to a fresh plate, and absorbance was measured at 595 nm using a microplate reader (Bio-Tek EL808, Winooski, VT, USA). Absorbance values were directly proportional to biofilm biomass. Untreated bacterial cultures served as positive controls for biofilm formation, while sterile MHB served as the negative control.

HEK293 cells = test: Cytotoxicity MTS assay; type: cell-based, human; details: HEK293 cells, 48 h, MTS; read-out: IC50 HEK293
Description: (§3) The cytotoxic potential of the selected drug candidates was evaluated using the CellTiter 96® AQueous One Solution Cell Proliferation Assay (Promega, Madison, WI, USA), following the manufacturer’s protocol. Human cell lines RPE1 and HEK293 were cultured at 37 °C in a humidified incubator with 5% CO2. Test compounds were dissolved in the appropriate growth medium and serially diluted across a range of concentrations in 96-well microtiter plates. Each well was seeded with 5000 cells and incubated for 48 h under standard culture conditions. Following this incubation period, 20 µL of MTS reagent was added to each well, and the plates were further incubated for 3 h to allow for color development. Absorbance was measured at 490 nm using a microplate reader to determine cell viability. Cytotoxicity was quantified as the half-maximal inhibitory concentration (IC50), defined as the concentration of compound that reduced cell viability by 50%. […] IC50 values were calculated using GraFit 6.0 software by plotting compound concentration against absorbance and fitting the data to a sigmoidal dose–response curve.

RPE1 cells = test: Cytotoxicity MTS assay; type: cell-based, human; details: RPE1 cells, 48 h, MTS; read-out: IC50 RPE1
Description: as §3

[11] = system: Listeria monocytogenes ATCC 7644; test: Biofilm inhibition assay (crystal violet); type: cell-based; details: L. monocytogenes
Description: as §1
as §2, with “Aliquots (50 µL) of the standardized bacterial suspension were inoculated into 96-well microtiter plates containing the test compounds at final concentrations of 100, 50, 25, and 12.5 µg/mL. Plates” for “Plates”

CCCCCCCCCCCCNC1C[N+]2(CCC[N+]34CCC(CC3)C(NCCCCCCCCCCCC)C4)CCC1CC2 (racemic) [2(QC12)3, (±)-1,1′-(Propane-1,3-diyl) bis(3-(dodecylamino)quinuclidinium) dibromide]
MIC [1]: 75 µM | MIC [2]: > 75 µM | MIC [3]: 75 µM | MIC [4]: > 75 µM | MIC [5]: > 75 µM | MIC [6]: 75 µM | MIC [7]: > 75 µM | MIC [8]: > 75 µM | MIC [9]: 38 µM

CCCCCCCCCCCCNC1C[N+]2(CCCC[N+]34CCC(CC3)C(NCCCCCCCCCCCC)C4)CCC1CC2 (racemic) [2(QC12)4, (±)-1,1′-(Butane-1,4-diyl) bis(3-(dodecylamino)quinuclidinium) dibromide]
MIC [1]: > 75 µM | MIC [2]: > 75 µM | MIC [3]: > 75 µM | MIC [4]: > 75 µM | MIC [5]: > 75 µM | MIC [6]: 75 µM | MIC [7]: > 75 µM | MIC [8]: > 75 µM | MIC [9]: 75 µM

CCCCCCCCCCCC[N+](C)(C)Cc1ccccc1.[Br-] [BAB, benzyldodecyldimethylammonium bromide, reference compound]
MIC [1]: 50 µM | biofilm inhibition ([10]; S. aureus ATCC 25923, across all tested concentrations): > 74% | Minimum Inhibitory Concentrations (MIC) ([3]; Staphylococcus aureus ATCC 25923): 10 µM | Minimum Inhibitory Concentrations (MIC) ([4]; Staphylococcus aureus Clinical/MRSA): 25 µM | Minimum Inhibitory Concentrations (MIC) ([5]; Enterococcus faecalis ATCC 29212): 15 µM | Minimum Inhibitory Concentrations (MIC) ([6]; Staphylococcus aureus ATCC 33591): 25 µM | IC50 (HEK293 cells): 3 µM | IC50 (RPE1 cells): 0.82 µM | Minimum Inhibitory Concentrations (MIC) ([7]; Escherichia coli ATCC 25922): 63 µM | biofilm inhibition ([11]; 12.5 µg/mL): comparable values | biofilm inhibition ([11]; 25 µg/mL): 20% | biofilm inhibition ([11]; 50 µg/mL): remaining consistent | biofilm inhibition ([11]; 100 µg/mL): 44%

O=C1C[N+]2(CCC[N+]34CCC(CC3)C(=O)C4)CCC1CC2 [2(QO)3, 1,1′-(Propane-1,3-diyl) bis(3-oxoquinuclidinium) dibromide]
MIC [1]: > 75 µM | MIC [2]: > 75 µM | MIC [3]: > 75 µM | MIC [4]: > 75 µM | MIC [5]: > 75 µM | MIC [6]: > 75 µM | MIC [7]: > 75 µM | MIC [8]: > 75 µM | MIC [9]: > 75 µM

CCCCCCCCCCCCCCNC1C[N+]2(CCCC[N+]34CCC(CC3)C(NCCCCCCCCCCCCCC)C4)CCC1CC2 (racemic) [2(QC14)4, (±)-1,1′-(Butane-1,4-diyl) bis(3-(tetradecylamino)quinuclidinium) dibromide]
MIC [1]: > 75 µM | MIC [2]: > 75 µM | MIC [3]: > 75 µM | MIC [4]: > 75 µM | MIC [5]: > 75 µM | MIC [6]: 75 µM | MIC [7]: > 75 µM | MIC [8]: > 75 µM | MIC [9]: > 75 µM

CCCCCCCCCCCCNC1C[N+]2(CCCCCC[N+]34CCC(CC3)C(NCCCCCCCCCCCC)C4)CCC1CC2 (racemic) [2(QC12)6, (±)-1,1′-(Hexane-1,6-diyl) bis(3-(dodecylamino)quinuclidinium) dibromide]
MIC [1]: > 75 µM | MIC [2]: > 75 µM | MIC [3]: 75 µM | MIC [4]: > 75 µM | MIC [5]: 75 µM | MIC [6]: 19 µM | MIC [7]: 38 µM | MIC [8]: > 75 µM | MIC [9]: 38 µM

CO/N=C(\C(=O)N[C@@H]1C(=O)N2C(C(=O)O)=C(COC(C)=O)CS[C@H]12)c1csc(N)n1 [CFX, cefotaxime, reference compound]
biofilm inhibition ([10]; S. aureus ATCC 25923, 50 µg/mL): 62% | biofilm inhibition ([11]; 12.5 µg/mL): similarly low values | inhibition at 25 µg/mL ([11]; Listeria monocytogenes, ATCC7644, 25 µg/mL, read-out: biofilm inhibition): 6% | inhibition at 50 µg/mL ([11]; Listeria monocytogenes, ATCC7644, 50 µg/mL, read-out: biofilm inhibition): > 20% | inhibition at 100 µg/mL ([11]; Listeria monocytogenes, ATCC7644, 100 µg/mL, read-out: biofilm inhibition): > 20%

CCCCCCCCCCCCCCNC1C[N+]2(CCC[N+]34CCC(CC3)C(NCCCCCCCCCCCCCC)C4)CCC1CC2 (racemic) [2(QC14)3, (±)-1,1′-(Propane-1,3-diyl) bis(3-(tetradecylamino)quinuclidinium) dibromide]
MIC [1]: > 75 µM | MIC [2]: > 75 µM | MIC [3]: 75 µM | MIC [4]: > 75 µM | MIC [5]: > 75 µM | MIC [6]: 75 µM | MIC [7]: > 75 µM | MIC [8]: > 75 µM | MIC [9]: 38 µM

O=C1C[N+]2(CCCC[N+]34CCC(CC3)C(=O)C4)CCC1CC2 [2(QO)4, 1,1′-(Butane-1,4-diyl) bis(3-oxoquinuclidinium) dibromide]
MIC [1]: > 75 µM | MIC [2]: > 75 µM | MIC [3]: > 75 µM | MIC [4]: > 75 µM | MIC [5]: > 75 µM | MIC [6]: > 75 µM | MIC [7]: > 75 µM | MIC [8]: > 75 µM | MIC [9]: > 75 µM

O=C1C[N+]2(CCCCCC[N+]34CCC(CC3)C(=O)C4)CCC1CC2 [2(QO)6, 1,1′-(Hexane-1,6-diyl) bis(3-oxoquinuclidinium) dibromide]
MIC [1]: > 75 µM | MIC [2]: > 75 µM | MIC [3]: > 75 µM | MIC [4]: > 75 µM | MIC [5]: > 75 µM | MIC [6]: > 75 µM | MIC [7]: > 75 µM | MIC [8]: > 75 µM | MIC [9]: > 75 µM

From article PMC12473123, “Structure–Function Insights into Quinuclidine-3-One BisQACs: Synthesis, Modulation of Bacterial Resistance, Structure–Activity Relationship, and Biological Profiling” (Pharmaceuticals, 2025)
